Values quoted from earlier work in patent US5006510A, “Method for relieving chronic pain with a somatostatin analog composition” (priority 1989, dated 1991).
Read-outs that look alike come from different tables or passages of the source.

How the values were obtained:
[1] = applied topically with N-decylmethylsulfoxide; human skin
[2] = applied topically with N-decylmethylsulfoxide; mouse skin

For `C[C@@H](O)[C@@H]1NC(=O)[C@H](CCCCN)NC(=O)[C@@H](Cc2c[nH]c3ccccc23)NC(=O)[C@H](Cc2ccccc2)NC(=O)[C@@H](NC(=O)[C@H](N)Cc2ccccc2)CSSC[C@@H](C(=O)N[C@H](CO)[C@@H](C)O)NC1=O` [octreotide, octreotide acetate], the skin permeation [1] is given as “permeates both human and mouse skin” and the skin permeation [2] is given as “permeates both human and mouse skin”.
